In patent US10961264B2, “Process for isolating a (thio)phosphoric acid derivative” (BASF SE, priority 2015, dated 2021):

Tests used:
[1] = Solubility of the (thio)phosphoric acid derivative in process solvents; format: physicochemical
[2] = as described in U.S. Pat. No. 8,513,460 B1; cited from earlier work

| SMILES | solubility in dichloromethane ([1]; dichloromethane, even at higher temperatures of 30° C. to 80° C.) | dissolution in dichloromethane in amounts comparable to NBPT ([1]; dichloromethane, same conditions as NBPT) | dissolution in ethyl acetate ([1]; ethyl acetate, upon moderate heating, precipitates again on cooling to room temperature) | solubility in aromatic solvents such as toluene ([1]; toluene, even at higher temperatures of 30° C. to 80° C.) | dissolution in toluene in amounts comparable to NBPT ([1]; toluene, same conditions as NBPT) | solubility in toluene ([1]; toluene, upon heating the product mixture (work-up of U.S. Pat. No. 8,513,460 B1)) | dissolution in toluene [2] |
| --- | --- | --- | --- | --- | --- | --- | --- |
| CCCNP(N)(N)=S [NPPT, N-(n-propyl)thiophosphoric acid triamide] | poor solubility | not possible to dissolve | can be dissolved to a large extent | poor solubility | not possible to dissolve | not sufficiently soluble | – |
| CCCCNP(N)(N)=S [NBPT, N-(n-butyl)thiophosphoric acid triamide] | – | – | – | – | – | – | can be dissolved |
